The source of these data is patent publication US20090131431A1, “Pyrazolo[3,4-b]pyridine compounds, and their use as a PDE4 inhibitors” (priority 2005, published 2009).

The target of the experiment is T1, PDE4B (human recombinant) (Homo sapiens, UniProt Q07343).
T1 construct: made in house
Put plainly: Inhibition of PDE4B activity: SPA and/or Fluorescence Polarisation (FP) assay. The conditions noted are these: one reading (n=1) or average of 2 or more readings, read-out: PDE4B pIC50 (±about 0.5) (converted). The class given is biochemical. On the procedure: The ability of compounds to inhibit catalytic activity at PDE4B or 4D (human recombinant), PDE3 (from bovine aorta), PDE5 (human recombinant) or PDE6 (from bovine retina) can optionally be determined by Scintillation Proximity Assay (SPA) in a 96-well format.
The enzyme concentration is adjusted so that no more than 20% hydrolysis of the substrate defined below occurs in control wells without compound, during the incubation. For the PDE3, PDE4B and PDE4D assays, [5′,8-3H]Adenosine 3′,5′-cyclic phosphate (Amersham Pharmacia Biotech, code TRK.559; or Amersham Biosciences UK Ltd, Pollards Wood, Chalfont St Giles, Buckinghamshire HP8 4SP, UK) is added to give 0.05 uCi per well and about 10 nM final concentration. […] Plates containing assay mixture, suitably approx. 100 ul volume of assay mixture, are mixed on an orbital shaker for 5 minutes and incubated at ambient temperature for 1 hour. Phosphodiesterase SPA beads (Amersham Pharmacia Biotech, code RPNQ 0150) are added (about 1 mg per well) to terminate the assay. Plates are sealed and shaken and allowed to stand at ambient temperature for 35 minutes to 1 hour (suitably 35 minutes) to allow the beads to settle. […] Curves are analysed using ActivityBase and XLfit (ID Business Solutions Limited, 2 Ocean Court, Surrey Research Park, Guildford, Surrey GU2 7QB, United Kingdom). Results are expressed as pIC50 values.
The ability of compounds to inhibit catalytic activity at PDE4B (human recombinant) or PDE4D (human recombinant) can optionally be determined by IMAP Fluorescence Polarisation (FP) assay (IMAP Explorer kit, available from Molecular Devices Corporation, Sunnydale, Calif., USA; Molecular Devices code: R8062) in 384-well format.
The IMAP FP assay is able to measure PDE activity in an homogenous, non-radioactive assay format. The FP assay uses the ability of immobilised trivalent metal cations, coated onto nanoparticles (tiny beads), to bind the phosphate group of Fl-AMP that is produced on the hydrolysis of fluorescein-labelled (Fl) cyclic adenosine mono-phosphate (Fl-cAMP) to the non-cyclic Fl-AMP form. […] Binding of Fl-AMP product to the beads (coated with the immobilised trivalent cations) slows the rotation of the bound Fl-AMP and leads to an increase in the fluorescence polarisation ratio of parallel to perpendicular light. Inhibition of the PDE reduces/inhibits this signal increase.
The enzyme level is set by experimentation so that reaction is linear throughout the incubation. Fluorescein adenosine 3′,5′-cyclic phosphate (from Molecular Devices Corporation, Molecular Devices code: R7091) is added to give about 40 nM final concentration (final assay volume usually ca. 20-40 ul, suitably ca. 20 ul). Plates are mixed on an orbital shaker for 10 seconds and incubated at ambient temperature for 40 minutes. IMAP binding reagent (as described above, from Molecular Devices Corporation, Molecular Devices code: R7207) is added (60 ul of a 1 in 400 dilution in binding buffer of the kit stock solution) to terminate the assay. Plates are allowed to stand at ambient temperature for 1 hour. The Fluorescence Polarisation (FP) ratio of parallel to perpendicular light is measured using an Analyst™ plate reader (from Molecular Devices Corporation). […] Curves are analysed using ActivityBase and XLfit (ID Business Solutions Limited, 2 Ocean Court, Surrey Research Park, Guildford, Surrey GU2 7QB, United Kingdom). Results are expressed as plC50 values.

Structures can show the parent of a compound that is named as a salt.

T1 sequence (Q07343 1-564 isoform Q07343-2): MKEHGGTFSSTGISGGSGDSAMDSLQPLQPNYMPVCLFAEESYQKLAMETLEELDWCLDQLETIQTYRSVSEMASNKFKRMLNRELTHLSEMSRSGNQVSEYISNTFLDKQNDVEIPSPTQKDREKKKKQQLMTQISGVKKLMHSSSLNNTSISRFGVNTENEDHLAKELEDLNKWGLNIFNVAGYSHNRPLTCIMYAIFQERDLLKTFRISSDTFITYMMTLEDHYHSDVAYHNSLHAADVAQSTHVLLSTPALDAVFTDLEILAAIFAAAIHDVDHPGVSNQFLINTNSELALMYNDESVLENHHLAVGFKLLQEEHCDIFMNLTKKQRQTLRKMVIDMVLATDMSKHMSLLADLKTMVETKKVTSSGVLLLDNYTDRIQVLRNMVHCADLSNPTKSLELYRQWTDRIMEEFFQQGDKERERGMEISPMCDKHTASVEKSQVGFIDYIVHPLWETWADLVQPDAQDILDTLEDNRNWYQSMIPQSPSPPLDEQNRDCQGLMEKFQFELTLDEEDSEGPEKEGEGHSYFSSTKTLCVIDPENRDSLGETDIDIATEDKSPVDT

As to `CCc1nc2c(cnn2CC)c(NC2CCN(C(N)=O)CC2)c1CNC(=O)c1cccc(N2CCCC2=O)c1` [Example 247, 4-({1,6-diethyl-5-[({[3-(2-oxo-1-pyrrolidinyl)phenyl]carbonyl}amino)methyl]-1H-pyrazolo[3,4-b]pyridin-4-yl}amino)-1-piperidinecarboxamide], the IC50 is 0.01 to 0.1 nM.
For `CCc1nc2c(cnn2CC)c(NC2CCN(C(N)=O)CC2)c1CN1Cc2ccccc2C1=O` [Example 212, [4-({1,6-diethyl-5-[(1-oxo-1,3-dihydro-2H-isoindol-2-yl)methyl]-1H-pyrazolo[3,4-b]pyridin-4-yl}amino)-1-piperidinecarboxamide], Formate], the IC50 is 0.01 to 0.1 nM.
Regarding `CCc1nc2c(cnn2CC)c(NC2CCN(C(N)=O)CC2)c1CNC(=O)c1ccc(N2CCCC2=O)cc1` [Example 209, 4-({1,6-diethyl-5-[({[4-(2-oxo-1-pyrrolidinyl)phenyl]carbonyl}amino)methyl]-1H-pyrazolo[3,4-b]pyridin-4-yl}amino)-1-piperidinecarboxamide], the IC50 is 0.01 to 0.1 nM.
For `CCc1nc2c(cnn2CC)c(NC2CCOCC2)c1CNC(=O)c1ccsc1` [Example 235, N-{[1,6-diethyl-4-(tetrahydro-2H-pyran-4-ylamino)-1H-pyrazolo[3,4-b]pyridin-5-yl]methyl}-3-thiophenecarboxamide], the IC50 was 0.01 to 0.1 nM.
On to `CCc1nc2c(cnn2CC)c(NC2CCOCC2)c1CNC(=O)c1cccc(N2CCCC2=O)c1` [Example 149, N-{[1,6-diethyl-4-(tetrahydro-2H-pyran-4-ylamino)-1H-pyrazolo[3,4-b]pyridin-5-yl]methyl}-3-(2-oxo-1-pyrrolidinyl)benzamide], for which the IC50 was 0.01 to 0.1 nM.
Regarding `CCc1nc2c(cnn2CC)c(NC2CCOCC2)c1CNC(=O)c1cnc(C)nc1` [Example 331, N-{[1,6-diethyl-4-(tetrahydro-2H-pyran-4-ylamino)-1H-pyrazolo[3,4-b]pyridin-5-yl]methyl}-2-methyl-5-pyrimidinecarboxamide], the IC50 is 0.126 to 1 nM.
To `CCn1ncc2c(NC3CCOCC3)c(CNC(=O)c3cnc(C)s3)c(C)nc21` [Example 322, N-{[1-ethyl-6-methyl-4-(tetrahydro-2H-pyran-4-ylamino)-1H-pyrazolo[3,4-b]pyridin-5-yl]methyl}-2-methyl-1,3-thiazole-5-carboxamide] belongs 0.126 to 1 nM; to `CCc1nc2c(cnn2CC)c(NC2CCOCC2)c1CN1Cc2ccc(F)cc2C1=O` [Example 315, 2-{[1,6-diethyl-4-(tetrahydro-2H-pyran-4-ylamino)-1H-pyrazolo[3,4-b]pyridin-5-yl]methyl}-6-fluoro-2,3-dihydro-1H-isoindol-1-one], 0.01 to 0.1 nM; to `CCc1nc2c(cnn2CC)c(NC2CCOCC2)c1CN1Cc2nnsc2C1=O` [Example 344, 5-{[1,6-diethyl-4-(tetrahydro-2H-pyran-4-ylamino)-1H-pyrazolo[3,4-b]pyridin-5-yl]methyl}-4,5-dihydro-6H-pyrrolo[3,4-d][1,2,3]thiadiazol-6-one], 0.126 to 1 nM.
On to `CCn1ncc2c(NC3CCOCC3)c(CNC(=O)c3ccsc3)c(C)nc21` [Example 227, N-{[1-ethyl-6-methyl-4-(tetrahydro-2H-pyran-4-ylamino)-1H-pyrazolo[3,4-b]pyridin-5-yl]methyl}-3-thiophenecarboxamide], for which the IC50 was 0.126 to 1 nM.
For the compound `CCc1nc2c(cnn2CC)c(NC2CCN(C(N)=O)CC2)c1CNC(=O)c1cccc(NC(C)=O)c1` [Example 244, 4-({5-[({[3-(acetylamino)phenyl]carbonyl}amino)methyl]-1,6-diethyl-1H-pyrazolo[3,4-b]pyridin-4-yl}amino)-1-piperidinecarboxamide], the IC50 is 0.01 to 0.1 nM.
`CCc1nc2c(cnn2CC)c(NC2CCOCC2)c1CNC(=O)N1CCCC1` [Example 289, N-{[1,6-diethyl-4-(tetrahydro-2H-pyran-4-ylamino)-1H-pyrazolo[3,4-b]pyridin-5-yl]methyl}-1-pyrrolidinecarboxamide]: the IC50 is 0.126 to 1 nM.
With `CCc1nc2c(cnn2CC)c(NC2CCOCC2)c1CNC(=O)c1cnc(C)s1` [Example 311, N-{[1,6-diethyl-4-(tetrahydro-2H-pyran-4-ylamino)-1H-pyrazolo[3,4-b]pyridin-5-yl]methyl}-2-methyl-1,3-thiazole-5-carboxamide], the IC50 was 0.01 to 0.1 nM.
In the case of `CCn1ncc2c(NC3CCOCC3)c(CNC(=O)c3ccc(N(C)C)cc3)cnc21` [Example 88, 4-(dimethylamino)-N-{[1-ethyl-4-(tetrahydro-2H-pyran-4-ylamino)-1H-pyrazolo[3,4-b]pyridin-5-yl]methyl}benzamide], the IC50 is 0.126 to 1 nM.
Turning to `CCn1ncc2c(NC3CCOCC3)c(CNC(=O)c3csc(C(F)(F)F)n3)c(C)nc21` [Example 319, N-{[1-ethyl-6-methyl-4-(tetrahydro-2H-pyran-4-ylamino)-1H-pyrazolo[3,4-b]pyridin-5-yl]methyl}-2-(trifluoromethyl)-1,3-thiazole-4-carboxamide], the IC50 is 0.126 to 1 nM.
For the compound `CCn1ncc2c(NC3CCOCC3)c(CNC(=O)c3ccc(-n4cccc4)nc3)c(C)nc21` [Example 214, N-{[1-ethyl-6-methyl-4-(tetrahydro-2H-pyran-4-ylamino)-1H-pyrazolo[3,4-b]pyridin-5-yl]methyl}-6-(1H-pyrrol-1-yl)-3-pyridinecarboxamide], the IC50 was 0.126 to 1 nM.
Consider `CCn1ncc2c(NC3CCOCC3)c(CN3Cc4occc4C3=O)c(C)nc21` [Example 301, 5-{[1-ethyl-6-methyl-4-(tetrahydro-2H-pyran-4-ylamino)-1H-pyrazolo[3,4-b]pyridin-5-yl]methyl}-5,6-dihydro-4H-furo[2,3-c]pyrrol-4-one], for which the IC50 is 0.126 to 1 nM.
In the case of `CCc1nc2c(cnn2CC)c(NC2CCOCC2)c1CNC(=O)c1ccnn1C` [Example 158, N-{[1,6-diethyl-4-(tetrahydro-2H-pyran-4-ylamino)-1H-pyrazolo[3,4-b]pyridin-5-yl]methyl}-1-methyl-1H-pyrazole-5-carboxamide] it was 0.126 to 1 nM; in that of `CCc1nc2c(cnn2CC)c(NC2CCOCC2)c1CNC(=O)c1ccc(N2CCCCCCC2)cc1` [Example 187, N-{[1,6-diethyl-4-(tetrahydro-2H-pyran-4-ylamino)-1H-pyrazolo[3,4-b]pyridin-5-yl]methyl}-4-(hexahydro-1(2H)-azocinyl)benzamide], 0.126 to 1 nM; in that of `CCc1nc2c(cnn2CC)c(NC2CCOCC2)c1CNC(=O)NCCc1ccccc1` [Example 202, N-{[1,6-diethyl-4-(tetrahydro-2H-pyran-4-ylamino)-1H-pyrazolo[3,4-b]pyridin-5-yl]methyl}-N′-(2-phenylethyl)urea], 0.126 to 1 nM.
As to `CCn1ncc2c(NC3CCOCC3)c(CNC(=O)c3ccc(C(F)(F)F)o3)c(C)nc21` [Example 324, N-{[1-ethyl-6-methyl-4-(tetrahydro-2H-pyran-4-ylamino)-1H-pyrazolo[3,4-b]pyridin-5-yl]methyl}-5-(trifluoromethyl)-2-furancarboxamide], the IC50 was 0.126 to 1 nM.
For `CCc1nc2c(cnn2CC)c(NC2CCOCC2)c1CNC(=O)c1cc(S(=O)(=O)N(CC)CC)ccc1OC` [Example 185, 5-[(diethylamino)sulfonyl]-N-{[1,6-diethyl-4-(tetrahydro-2H-pyran-4-ylamino)-1H-pyrazolo[3,4-b]pyridin-5-yl]methyl}-2-(methyloxy)benzamide], the IC50 is 0.01 to 0.1 nM.
As for `CCn1ncc2c(NC3CCOCC3)c(CNC(=O)c3ccc4c(=O)[nH][nH]c4c3)c(C)nc21` [Example 286, N-{[1-ethyl-6-methyl-4-(tetrahydro-2H-pyran-4-ylamino)-1H-pyrazolo[3,4-b]pyridin-5-yl]methyl}-3-oxo-2,3-dihydro-1H-indazole-6-carboxamide], the IC50 was 0.126 to 1 nM.
